Laboratory results from patent publication US11253524B2 (Gilead Sciences, Inc., priority 2018, dated 2022).
Blank lines part the entries; values can stand above or below the molecule they belong to.

Key:
[1] = molecular target: T1, human hepatic microsomal UGT1A1 (Homo sapiens, UniProt P22309); assay: biochemical
T1 sequence (P22309 26-533): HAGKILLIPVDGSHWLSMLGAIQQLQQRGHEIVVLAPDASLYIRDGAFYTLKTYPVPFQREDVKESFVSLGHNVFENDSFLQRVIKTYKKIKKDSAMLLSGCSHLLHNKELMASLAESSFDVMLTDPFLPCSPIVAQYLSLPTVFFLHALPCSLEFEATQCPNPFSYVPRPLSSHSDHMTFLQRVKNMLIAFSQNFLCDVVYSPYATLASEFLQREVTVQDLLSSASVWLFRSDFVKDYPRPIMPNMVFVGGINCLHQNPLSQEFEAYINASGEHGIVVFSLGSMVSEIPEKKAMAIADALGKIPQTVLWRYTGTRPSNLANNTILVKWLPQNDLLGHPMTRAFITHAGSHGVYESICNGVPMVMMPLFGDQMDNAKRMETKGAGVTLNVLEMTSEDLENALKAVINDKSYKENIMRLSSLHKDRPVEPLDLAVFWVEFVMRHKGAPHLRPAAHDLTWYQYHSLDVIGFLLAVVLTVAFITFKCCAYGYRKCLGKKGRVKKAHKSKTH
Protocol: The conditions for the assay were determined to be linear with respect to microsomal protein concentration and incubation time. […] Microsomal UGT1A1 activity was determined in duplicate. […] Diluted microsomal fraction was incubated on ice for 15 minutes with alamethicin, magnesium chloride and SACLAC. Substrate and inhibitor were then added and the mixture warmed to 37° C. for 0.5 minute. The reaction was initiated by the addition of UDP glucuronic acid in potassium phosphate buffer. The incubation continued at 37° C. with shaking and no light exposure for 2 minutes. Reactions were terminated by addition of one volume of 200 mM ascorbic acid in methanol, containing 200 nM 2-(N-(2-ethylphenyl)methylsulfonamido)-N-(2-(pyridin-2-ylthio)ethyl)acetamide as the internal standard.
A Shimadzu UFLC XR UPLC system was used for analysis. The column used was a Thermo-Hypersil Gold 1.9 μm C18 column (30×2.1 mm) held at 60° C. Mobile phases were; A: water containing 0.1% (v/v) formic acid, and B: acetonitrile containing 0.1% (v/v) formic acid, pumped at 0.7 mL/minute. Elution was achieved by a series of linear gradients over 2 minutes. The mass spectrometer was an Applied Biosciences SCIEX QTRAP 5500 triple quadrupole mass spectrometer with an electrospray interface operating in positive ion mode. Quantification was by metabolite/internal standard peak area ratio (PAR).
MS/MS transitions ([M+H]+) of m/z 761.2/475.1 and 937.2/475.1 for the monoglucuronide and diglucuronide, respectively. The PAR values for the two monoglucuronides were combined for quantification.
Reaction velocities were calculated from the rates of formation of the metabolites and were compared to those seen with the vehicle control (100% activity). IC50 values were calculated by non-linear regression using GraphPad Prism 7.03 and a sigmoidal three parameter inhibition model. […] During the testing period the inhibitory potency of atazanavir was determined four times, with each concentration tested in duplicate in each determination. The data from all runs were pooled and a global fit performed to determine the lower plateau value. […] For atazanavir, the IC50 values from the four duplicate runs were combined to generate a summary geometric mean and multiplicative standard deviation for this positive control inhibitor.

MRP2 (ABCC2) = molecular target: T2, MRP2 (ABCC2) (Homo sapiens, UniProt Q92887); assay: in vitro; type: biochemical; conditions: human
T2 construct: host or cells: membrane vesicle preparations
Protocol: Cells and experimental conditions for the transporter inhibition assays are summarized below in Table 7. […] M15, M20, and M23 were prepared according to the procedures described herein. All other materials were purchased by SOLVO Biotechnology and experiments were conducted according to SOLVO Standard Operating Procedures (SOPs) of its certified ISO 9001:2008 system. Lot and product information was recorded by SOLVO Biotechnology.
Test compounds and positive control was incubated with membrane vesicle preparations (total protein: 50 μg/well) and the model substrate in the absence or presence of ATP. Reaction mixtures were preincubated for 15 minutes at 37° C. Reactions were started by the addition of 25 μL of 12 mM MgATP or AMP assay buffer (for background controls) preincubated separately. Reactions were stopped after 5 min by the addition of 200 μL of ice-cold washing buffer and immediate filtration via glass fiber filters mounted to a 96-well plate (filter plate). The filters were washed, dried and the amount of substrate inside the filtered vesicles determined by liquid scintillation. A positive control inhibitor was tested in parallel. Control membranes lacking transporter expression were used as negative control. All assays were performed in duplicate.
Fractional transport activities were calculated from the following equation: Activity %=(A−B)/(C−D)×100 where A is translocated amount of substrate in the presence of TA and ATP, B is translocated amount of substrate in the presence of TA, C is translocated amount of substrate in the presence of solvent and ATP, and D is translocated amount of substrate in the presence of solvent. IC50 Determination in Transporter Assays
IC50 is defined as the test article concentration needed to inhibit the maximal transporter specific transport by 50%. IC50 values were calculated using non-linear fitting of % inhibition versus concentration to a sigmoidal curve with a variable Hill Coefficient using GraphPad Prism 5 (GraphPad Software Inc., San Diego, Calif.). If the % inhibition was less than 50% at the highest concentration tested, the IC50 was not determined. No inhibition observed (NIO) is reported for relative inhibition results <20% and no concentration dependent transport observed up to the highest concentration tested.

[2] = substrate: C=CC1=C(C)/C(=C/c2[nH]c(Cc3[nH]c(/C=C4\NC(=O)C(C)=C4C=C)c(C)c3CCC(=O)O)c(CCC(=O)O)c2C)NC1=O; assay: cells, lysate or membranes named; conditions: other: under the assay conditions; pH 7.4

T2 sequence (Q92887 whole entry): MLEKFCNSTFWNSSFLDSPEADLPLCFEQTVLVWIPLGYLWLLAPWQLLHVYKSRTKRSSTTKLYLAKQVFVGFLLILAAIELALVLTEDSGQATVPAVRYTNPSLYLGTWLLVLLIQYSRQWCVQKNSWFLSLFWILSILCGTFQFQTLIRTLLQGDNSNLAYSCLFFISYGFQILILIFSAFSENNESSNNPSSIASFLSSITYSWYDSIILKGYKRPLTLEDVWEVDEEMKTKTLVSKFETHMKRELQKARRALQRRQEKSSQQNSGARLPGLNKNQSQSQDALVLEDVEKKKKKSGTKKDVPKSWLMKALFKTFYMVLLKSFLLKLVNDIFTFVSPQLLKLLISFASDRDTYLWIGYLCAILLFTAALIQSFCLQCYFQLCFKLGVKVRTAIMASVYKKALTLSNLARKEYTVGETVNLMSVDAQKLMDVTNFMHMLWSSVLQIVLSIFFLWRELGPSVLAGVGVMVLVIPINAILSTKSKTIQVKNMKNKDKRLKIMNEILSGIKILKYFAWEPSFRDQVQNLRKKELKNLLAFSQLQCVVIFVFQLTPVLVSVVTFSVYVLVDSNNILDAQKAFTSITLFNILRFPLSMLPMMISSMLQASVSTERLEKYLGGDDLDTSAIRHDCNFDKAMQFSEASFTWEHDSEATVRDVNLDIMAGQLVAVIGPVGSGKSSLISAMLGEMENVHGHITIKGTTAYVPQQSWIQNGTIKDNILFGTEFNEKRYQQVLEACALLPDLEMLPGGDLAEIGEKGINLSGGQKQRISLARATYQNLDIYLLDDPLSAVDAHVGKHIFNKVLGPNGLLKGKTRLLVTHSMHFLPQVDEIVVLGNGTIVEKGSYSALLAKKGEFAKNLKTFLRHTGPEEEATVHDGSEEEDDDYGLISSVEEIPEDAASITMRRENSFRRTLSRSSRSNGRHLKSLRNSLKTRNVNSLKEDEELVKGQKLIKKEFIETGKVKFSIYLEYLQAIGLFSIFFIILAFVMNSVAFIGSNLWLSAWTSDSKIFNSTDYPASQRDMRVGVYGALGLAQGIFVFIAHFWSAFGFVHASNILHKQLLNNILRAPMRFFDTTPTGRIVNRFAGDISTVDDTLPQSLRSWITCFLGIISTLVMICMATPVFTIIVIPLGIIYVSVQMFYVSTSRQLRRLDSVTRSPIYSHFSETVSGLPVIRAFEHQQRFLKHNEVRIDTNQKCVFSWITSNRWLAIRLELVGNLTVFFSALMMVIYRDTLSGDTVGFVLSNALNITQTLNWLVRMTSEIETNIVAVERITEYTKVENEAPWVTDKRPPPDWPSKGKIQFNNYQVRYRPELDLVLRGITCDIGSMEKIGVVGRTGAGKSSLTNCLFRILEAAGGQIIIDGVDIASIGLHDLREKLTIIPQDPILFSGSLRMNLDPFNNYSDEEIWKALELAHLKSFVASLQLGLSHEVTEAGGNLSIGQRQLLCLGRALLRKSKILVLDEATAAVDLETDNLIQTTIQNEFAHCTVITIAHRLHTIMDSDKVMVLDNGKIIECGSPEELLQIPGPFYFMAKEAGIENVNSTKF

IC50 [1]: 1.2 µM | Lower plateau value, activity remaining (global best fit) ([1]; pooled data of four runs, standard error 2.94%): 10.96%
Molecule: COC(=O)N[C@H](C(=O)N[C@@H](Cc1ccccc1)[C@@H](O)CN(Cc1ccc(-c2ccccn2)cc1)NC(=O)[C@@H](NC(=O)OC)C(C)(C)C)C(C)(C)C [atazanavir, reference compound]

inhibition at 5 min, 200 µM (MRP2 (ABCC2)): ≥ 99%
Molecule: CCc1oc2ccccc2c1C(=O)c1cc(Br)c(O)c(Br)c1 [benzbromarone, reference compound]

B1: human hepatic microsomal UGT1A1 (Homo sapiens) (protein)
chain: HAGKILLIPVDGSHWLSMLGAIQQLQQRGHEIVVLAPDASLYIRDGAFYTLKTYPVPFQREDVKESFVSLGHNVFENDSFLQRVIKTYKKIKKDSAMLLSGCSHLLHNKELMASLAESSFDVMLTDPFLPCSPIVAQYLSLPTVFFLHALPCSLEFEATQCPNPFSYVPRPLSSHSDHMTFLQRVKNMLIAFSQNFLCDVVYSPYATLASEFLQREVTVQDLLSSASVWLFRSDFVKDYPRPIMPNMVFVGGINCLHQNPLSQEFEAYINASGEHGIVVFSLGSMVSEIPEKKAMAIADALGKIPQTVLWRYTGTRPSNLANNTILVKWLPQNDLLGHPMTRAFITHAGSHGVYESICNGVPMVMMPLFGDQMDNAKRMETKGAGVTLNVLEMTSEDLENALKAVINDKSYKENIMRLSSLHKDRPVEPLDLAVFWVEFVMRHKGAPHLRPAAHDLTWYQYHSLDVIGFLLAVVLTVAFITFKCCAYGYRKCLGKKGRVKKAHKSKTH
Km [2]: 0.98 µM
